Source: ChEMBL document CHEMBL4033680, “Derivatives of caffeic acid, a natural antioxidant, as the basis for the discovery of novel nonpeptidic neurotrophic agents” (2017)
Active and inactive are the calls of the source. No cut-off for these calls is given here.

Legend:
PC-12 [1] = test: Neuroprotective activity against serum deprivation-induced cell death in rat PC12 cells assessed as cell survival at 25 uM after 48 hrs by MTT assay relative to control; type: functional; details: PC-12, 48 h, read-out: Survival
PC-12 [2] = test: Potentiation of NGF-induced neuronal differentiation in rat PC12 cells assessed as increase in number of neurites at 5 uM after 8 days by phase contrast micoscopy; type: functional, cell-based
PC-12 [3] = test: Potentiation of NGF-induced neuronal differentiation in rat PC12 cells assessed as increase in number of neurites at 25 uM after 8 days by phase contrast micoscopy; type: functional, cell-based
PC-12 [4] = test: Potentiation of NGF-induced neuronal differentiation in rat PC12 cells assessed as increase in number of neurites longer than 100 umeter at 5 uM after 8 days by phase contrast micoscopy; type: functional, cell-based
PC-12 [5] = test: Potentiation of NGF-induced neuronal differentiation in rat PC12 cells assessed as increase in number of neurites longer than 100 umeter at 25 uM after 8 days by phase contrast micoscopy; type: functional, cell-based
PC-12 [6] = test: Potentiation of NGF-induced neuronal differentiation in rat PC12 cells assessed as increase in number of neurites at 1 uM after 8 days by phase contrast micoscopy; type: functional, cell-based
PC-12 [7] = test: Neuroprotective activity against serum deprivation-induced cell death in rat PC12 cells assessed as increase in cell survival at 25 uM after 48 hrs in presence of TrkA inhibitor K252a by MTT assay; type: functional, cell-based
PC-12 [8] = test: Induction of neurite outgrowth in rat PC12 cells assessed as increase in total number of neurites at 5 to 25 uM after 8 days by phase contrast micoscopy; type: functional, cell-based
[9] = target: High affinity nerve growth factor receptor (Rattus norvegicus) (UniProt P35739); test: Activation of TrkA in rat PC12 cells assessed as increase in phospho-TrkA levels at 5 to 25 uM after 60 mins by Western blot method; type: cell-based
High affinity nerve growth factor receptor (Rattus norvegicus), sequence (P35739 whole entry): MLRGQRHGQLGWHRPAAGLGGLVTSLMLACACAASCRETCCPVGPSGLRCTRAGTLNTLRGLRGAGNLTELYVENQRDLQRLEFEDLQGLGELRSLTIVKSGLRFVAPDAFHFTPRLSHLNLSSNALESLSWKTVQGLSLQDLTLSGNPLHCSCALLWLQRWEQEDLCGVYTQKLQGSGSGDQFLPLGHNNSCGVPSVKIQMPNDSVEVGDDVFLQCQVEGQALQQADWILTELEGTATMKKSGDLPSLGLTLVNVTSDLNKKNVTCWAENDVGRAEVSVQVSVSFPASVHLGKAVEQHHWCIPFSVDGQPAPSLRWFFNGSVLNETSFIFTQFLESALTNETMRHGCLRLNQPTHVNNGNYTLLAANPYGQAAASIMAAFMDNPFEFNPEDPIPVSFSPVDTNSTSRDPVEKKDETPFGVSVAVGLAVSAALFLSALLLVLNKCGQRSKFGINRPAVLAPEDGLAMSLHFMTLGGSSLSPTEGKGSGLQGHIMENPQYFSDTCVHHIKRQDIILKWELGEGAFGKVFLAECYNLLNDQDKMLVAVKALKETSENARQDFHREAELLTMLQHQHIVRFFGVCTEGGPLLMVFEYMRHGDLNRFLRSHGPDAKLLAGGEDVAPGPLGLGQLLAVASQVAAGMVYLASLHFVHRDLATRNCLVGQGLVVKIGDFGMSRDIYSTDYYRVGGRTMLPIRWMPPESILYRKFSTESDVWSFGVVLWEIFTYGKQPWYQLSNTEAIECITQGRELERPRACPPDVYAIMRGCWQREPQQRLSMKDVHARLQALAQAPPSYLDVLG

[10] = target: High affinity nerve growth factor receptor (Rattus norvegicus) (UniProt P35739); test: Potentiation of NGF-induced TrkA phosphorylation in rat PC12 cells at 5 to 25 uM after 60 mins by Western blot method; type: cell-based
[11] = target: T1, Mitogen-activated protein kinase 1 and 3 (ERK2 and ERK1) (Rattus norvegicus) (UniProt P63086+P21708); test: Increase in ERK1/2 phosphorylation in rat PC12 cells after 2 hrs by immunoblotting method; type: cell-based
T1 sequence (P21708 whole entry, looked up): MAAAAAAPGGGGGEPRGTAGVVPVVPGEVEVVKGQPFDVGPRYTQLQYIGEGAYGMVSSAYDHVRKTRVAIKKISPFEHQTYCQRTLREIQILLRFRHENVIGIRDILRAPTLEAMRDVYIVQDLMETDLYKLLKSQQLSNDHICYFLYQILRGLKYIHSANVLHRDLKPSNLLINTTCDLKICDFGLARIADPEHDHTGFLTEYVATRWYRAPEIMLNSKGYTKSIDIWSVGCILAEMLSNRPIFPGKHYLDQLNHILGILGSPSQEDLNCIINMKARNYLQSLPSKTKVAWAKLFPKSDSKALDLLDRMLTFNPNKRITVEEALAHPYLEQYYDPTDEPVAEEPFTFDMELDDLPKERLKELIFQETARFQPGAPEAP
T1 sequence (P63086 whole entry, looked up): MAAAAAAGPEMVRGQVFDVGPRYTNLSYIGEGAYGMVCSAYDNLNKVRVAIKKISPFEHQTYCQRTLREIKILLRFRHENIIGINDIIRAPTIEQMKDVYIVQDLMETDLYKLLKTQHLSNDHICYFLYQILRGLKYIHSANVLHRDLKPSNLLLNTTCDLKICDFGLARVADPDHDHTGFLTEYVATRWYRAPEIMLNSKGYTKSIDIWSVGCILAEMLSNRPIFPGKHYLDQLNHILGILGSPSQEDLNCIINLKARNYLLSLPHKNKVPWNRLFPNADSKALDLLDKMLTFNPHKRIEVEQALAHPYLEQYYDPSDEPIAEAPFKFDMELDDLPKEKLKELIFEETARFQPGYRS

[12] = target: RAC-alpha serine/threonine-protein kinase (Rattus norvegicus) (UniProt P47196); test: Increase in AKT phosphorylation in rat PC12 cells at 5 to 25 uM after 2 hrs by immunoblotting method; type: cell-based
RAC-alpha serine/threonine-protein kinase (Rattus norvegicus), sequence (P47196 whole entry): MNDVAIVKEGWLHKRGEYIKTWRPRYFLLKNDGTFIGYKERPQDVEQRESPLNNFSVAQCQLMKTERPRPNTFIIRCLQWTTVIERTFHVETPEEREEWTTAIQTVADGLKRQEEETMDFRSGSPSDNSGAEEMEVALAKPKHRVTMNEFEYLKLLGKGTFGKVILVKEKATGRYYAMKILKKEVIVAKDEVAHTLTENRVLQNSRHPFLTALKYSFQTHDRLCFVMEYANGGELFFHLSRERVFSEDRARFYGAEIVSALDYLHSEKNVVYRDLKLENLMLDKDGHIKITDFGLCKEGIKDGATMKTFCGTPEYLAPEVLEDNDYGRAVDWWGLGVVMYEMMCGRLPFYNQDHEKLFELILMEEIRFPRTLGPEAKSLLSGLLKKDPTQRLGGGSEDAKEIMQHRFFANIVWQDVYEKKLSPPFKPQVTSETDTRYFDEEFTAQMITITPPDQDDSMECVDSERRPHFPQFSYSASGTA

[13] = target: RAC-alpha serine/threonine-protein kinase (Rattus norvegicus) (UniProt P47196); test: Increase in NGF-induced AKT phosphorylation in rat PC12 cells at 5 to 25 uM after 2 hrs by immunoblotting method; type: cell-based
[14] = target: T1, Mitogen-activated protein kinase 1 and 3 (ERK2 and ERK1) (Rattus norvegicus); test: Increase in NGF-induced ERK1/2 phosphorylation in rat PC12 cells at 5 to 25 uM after 2 hrs by immunoblotting method; type: cell-based
PC-12 [15] = test: Potentiation of NGF-induced neuronal differentiation in rat PC12 cells assessed as increase in number of neurites after 8 days by phase contrast micoscopy; type: functional, cell-based

In the case of CCCCCCCCNC(=O)/C=C/c1ccc(O)c(O)c1, the viability at 25 µM (PC-12 [1]) was 158%, the Activity (PC-12 [2]) was “Active” and the Activity (PC-12 [3]) was “Active”. For the same compound, the Activity (PC-12 [4]) was “Active”, the Activity (PC-12 [5]) was “Active” and the Activity (PC-12 [6]) was “inactive”. For the same compound, the Activity (PC-12 [7]) was “inactive” and the Activity (PC-12 [8]) was “inactive”.
With CCCCNC(=O)/C=C/c1ccc(O)c(O)c1 the viability at 25 µM (PC-12 [1]) was 202%, the Activity (PC-12 [2]) was “Active” and the Activity (PC-12 [3]) was “Active”. The Activity (PC-12 [4]) was “Active”, the Activity (PC-12 [5]) was “Active” and the Activity (PC-12 [6]) was “inactive”. For the same compound, the Activity (PC-12 [7]) was “inactive”, the Activity [9] was “inactive” and the Activity [10] was “inactive”. For the same compound, the Activity [11] was “Dose-dependent effect”, the Activity [12] was “inactive” and the Activity (PC-12 [8]) was “inactive”. For the same compound, the Activity [13] was “inactive” and the Activity [14] was “Active”.
CCCCCCNC(=O)/C=C/c1ccc(O)c(O)c1 [CAFFEOYLHEXYLAMIDE] was tested, and the viability at 25 µM (PC-12 [1]) was 183%, the Activity (PC-12 [2]) was “Active” and the Activity (PC-12 [3]) was “Active”. The Activity (PC-12 [4]) was “Active”, the Activity (PC-12 [5]) was “Active” and the Activity (PC-12 [6]) was “inactive”. The Activity (PC-12 [7]) was “inactive” and the Activity (PC-12 [8]) was “inactive”.
CCCNC(=O)/C=C/c1ccc(O)c(O)c1 was tested, and the viability at 25 µM (PC-12 [1]) was 158%, the Activity (PC-12 [3]) was “Active” and the Activity (PC-12 [5]) was “Active”. For the same compound, the Activity (PC-12 [6]) was “inactive”, the Activity (PC-12 [7]) was “inactive” and the Activity (PC-12 [8]) was “inactive”.
CCCCCCCCCCNC(=O)/C=C/c1ccc(O)c(O)c1 was tested, and the viability at 25 µM (PC-12 [1]) was 193%, the Activity (PC-12 [15]) was “inactive” and the Activity (PC-12 [7]) was “inactive”.
CCCCCCCCCCCCNC(=O)/C=C/c1ccc(O)c(O)c1 was tested, and the viability at 25 µM (PC-12 [1]) was 230%, the Activity (PC-12 [15]) was “inactive” and the Activity (PC-12 [7]) was “inactive”. For the same compound, the Activity [9] was “inactive”, the Activity [10] was “inactive” and the Activity [11] was “Dose-dependent effect”. For the same compound, the Activity [12] was “Active”, the Activity [13] was “inactive” and the Activity [14] was “Active”.
